We go through two compounds from patent US11529363B2, “Methods of treating cancer in pediatric patients” (ARIAD Pharmaceuticals, Inc., priority 2018, dated 2022).

The conditions of data set [1]: pediatric, 280 mg/m^2; cited from earlier work.
Data set [2] concerns ALK+ NSCLC. Briefly: phase 2 study AP26113-13-201 (ALTA trial) in adult patients with ALK+ NSCLC refractory to crizotinib. Format: in vivo, human. The method, then:
In the pivotal phase 2 study in adults with ALK+ NSCLC, 2 dose regimens were evaluated: (1) 90 mg QD; (2) 90 mg QD in Week 1 followed by escalation to 180 mg QD for those patients tolerating the 7-day 90 mg QD lead in. […] To mitigate the risk for EOPEs in pediatric patients, the doses of brigatinib selected for Week 1 of treatment are informed by adult clinical experience and designed to achieve systemic exposures not exceeding those at the 90 mg daily dose in adults.

Data set [3] can be described thus: cross-study comparison of brigatinib exposure, oral solution (AP26113-13-104) vs tablet (AP26113-16-110). The class given is in vivo, human.
Data set [4] in a line: first-in-human Study AP26113-11-101, tolerated dose in adults. The method, then:
One additional dose level is planned if the 40 mg/m^2 QD→80 mg/m^2 QD dose is tolerated.

Data set [5] has as its target ALK (Homo sapiens, UniProt Q9UM73). The conditions noted are these: in vitro studies; cited from earlier work.
In data set [6] the test system is secondary ALK mutants of EML4-ALK. The following applies: at relevant levels of exposure achieved in patients; cited from earlier work.
Where [7] appears, read: 90→180 mg QD, adult ALK+ NSCLC refractory to crizotinib.

Chain of ALK (Q9UM73 19-1620): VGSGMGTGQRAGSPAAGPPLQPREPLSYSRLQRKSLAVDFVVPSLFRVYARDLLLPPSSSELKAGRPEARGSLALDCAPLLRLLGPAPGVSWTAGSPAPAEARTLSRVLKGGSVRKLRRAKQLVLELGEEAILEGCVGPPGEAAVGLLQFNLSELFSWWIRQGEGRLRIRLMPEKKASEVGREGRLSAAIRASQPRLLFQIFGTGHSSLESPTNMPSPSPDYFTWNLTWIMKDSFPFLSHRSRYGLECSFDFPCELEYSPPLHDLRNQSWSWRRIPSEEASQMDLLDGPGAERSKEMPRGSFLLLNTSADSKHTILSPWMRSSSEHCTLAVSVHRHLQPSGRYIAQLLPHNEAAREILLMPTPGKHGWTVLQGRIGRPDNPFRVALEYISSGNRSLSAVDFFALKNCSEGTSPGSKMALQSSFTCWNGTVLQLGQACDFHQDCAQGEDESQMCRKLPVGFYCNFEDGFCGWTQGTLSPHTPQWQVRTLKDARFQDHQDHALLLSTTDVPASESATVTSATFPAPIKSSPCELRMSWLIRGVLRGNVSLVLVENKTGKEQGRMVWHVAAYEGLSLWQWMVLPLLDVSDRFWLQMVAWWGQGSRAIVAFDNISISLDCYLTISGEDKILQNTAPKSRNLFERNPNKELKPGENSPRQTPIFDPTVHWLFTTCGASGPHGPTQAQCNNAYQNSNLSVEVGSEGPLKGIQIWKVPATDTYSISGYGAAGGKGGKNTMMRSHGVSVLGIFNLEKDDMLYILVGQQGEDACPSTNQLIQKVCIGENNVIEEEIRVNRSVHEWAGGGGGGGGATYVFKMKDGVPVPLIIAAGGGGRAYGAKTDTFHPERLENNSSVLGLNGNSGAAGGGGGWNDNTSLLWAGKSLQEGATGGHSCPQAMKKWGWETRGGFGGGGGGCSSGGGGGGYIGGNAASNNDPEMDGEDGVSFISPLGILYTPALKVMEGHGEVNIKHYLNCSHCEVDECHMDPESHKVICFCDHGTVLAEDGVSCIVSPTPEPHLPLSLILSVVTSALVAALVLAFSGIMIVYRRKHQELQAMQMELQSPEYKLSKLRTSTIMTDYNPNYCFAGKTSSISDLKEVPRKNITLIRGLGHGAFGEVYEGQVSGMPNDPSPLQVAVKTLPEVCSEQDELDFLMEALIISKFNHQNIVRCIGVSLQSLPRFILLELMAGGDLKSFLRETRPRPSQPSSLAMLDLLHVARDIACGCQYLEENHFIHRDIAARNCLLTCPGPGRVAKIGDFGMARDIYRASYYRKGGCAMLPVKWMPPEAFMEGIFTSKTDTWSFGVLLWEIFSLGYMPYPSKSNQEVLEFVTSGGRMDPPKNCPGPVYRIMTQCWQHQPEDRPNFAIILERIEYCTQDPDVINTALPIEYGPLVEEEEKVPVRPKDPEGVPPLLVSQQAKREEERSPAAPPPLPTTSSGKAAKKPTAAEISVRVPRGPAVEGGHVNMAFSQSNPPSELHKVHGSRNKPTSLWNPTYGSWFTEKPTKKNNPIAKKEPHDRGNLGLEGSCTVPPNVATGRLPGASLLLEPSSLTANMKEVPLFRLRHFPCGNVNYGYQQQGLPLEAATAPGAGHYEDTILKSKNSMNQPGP

As to `C[C@@H](Oc1cc(-c2cnn(C3CCNCC3)c2)cnc1N)c1c(Cl)ccc(F)c1Cl` [crizotinib], the “systemic exposure at MTD/RP2D higher than adult clinical exposures at 250 mg BID” value in data set [1] is recorded as roughly 50%.

For the compound `COc1cc(N2CCC(N3CCN(C)CC3)CC2)ccc1Nc1ncc(Cl)c(Nc2ccccc2P(C)(C)=O)n1` [brigatinib, 5-chloro-N4-[2-(dimethylphosphoryl)phenyl]-N2-{2-methoxy-4-[4-(4-methylpiperazin-1-yl)piperidin-1-yl]phenyl}pyrimidine-2,4-diamine], in data set [2] (setting [7]), the “duration of response (DOR)” value is 13.8 months, the “investigator-assessed confirmed ORR” value is 55.5% and the “progression-free survival (PFS)” value was 15.6 months. Moreover, in data set [2] (pivotal phase 2 study, adults with ALK+ NSCLC), the “PFS at 180 mg QD versus 90 mg QD” value was “longer PFS at 180 mg QD”. The “relative bioavailability of oral solution, AUC higher in reference to the tablet” value in data set [3] (oral solution vs tablet, adults) was “approximately 42%”. The “oral solution/tablet AUC ratio” value in data set [3] (relative bioavailability factor) was determined as 1.42. The “highest acceptably tolerated dose” value in data set [4] is 240 mg QD. The “ALK inhibitor potency compared with crizotinib, ceritinib and alectinib” value in data set [5] is “more potent ALK inhibitor than crizotinib, ceritinib, and alectinib”. Moreover, the “activity against 17 secondary ALK mutants of EML4-ALK” value in data set [6] was “maintain substantial activity against all 17 secondary ALK mutants”.
